Laboratory results as given in patent US20080207522A1, “Antimicrobial Peptides” (priority 2004, published 2008).
Like-named read-outs stand apart in the source and are kept apart here. Ends that are not written are not given here.

How the values were obtained:
[1] = tested on: Pseudomonas aeruginosa PAO1 strain H103
Protocol: (§1) Minimal inhibitory concentration (MIC) determination. The MICs of the peptides were measured using a modified broth microdilution method in Mueller Hinton (MH) medium. Wu et al., J. Biol. Chem. 274: 29-35, 1999. Briefly, the peptides were dissolved and stored in glass vials. The assay was performed in sterile 96-well polypropylene microtitre plates were used. Serial dilutions of the peptides to be assayed were performed in 0.01% acetic acid (Fisher) containing 0.2% bovine serum albumin (Boehringer Mannheim GmbH) at 10× the desired final concentration. Ten microlitres of the 10× peptides were added to each well of a 96-well polypropylene plate containing 90 μl of MH media per well. Bacteria were added to the plate from an overnight culture at 2-7×10^5 colony forming units/ml and incubated over night at 37° C. The MIC was taken as the concentration at which no growth was observed.
(§2) Strains. For the killing assay a mini-Tn5-lux mutant in Pseudomonas aeruginosa H103 was used. The strain is called H1001 and contains a fliC::luxCDABE transcriptional fusion resulting in constitutive expression of luciferase. The bacterial strains used for the antimicrobial activity assays included Escherichia coli UB1005 (F-, nalA37, metB1), a wild-type Salmonella enterica ssp. Typhimurium (S. Typhimurium), wild-type Pseudomonas aeruginosa PAO1 strain H103, Enterococcus faecalis ATCC29212, Staphylococcus aureus ATCC25923, and a clinical isolate of Staphylococcus epidermidis obtained from Dr. D. Speert (Department of Medicine, University of British Columbia). Antifungal activity was tested using a lab isolate of Candida albicans obtained from Dr. B. Dill (Department of Microbiology and Immunology, University of British Columbia).
(§3) In addition, the parent peptide Bac2A was included in these studies as a standard. The minimal inhibitory concentrations (MIC) were determined for the important medical pathogens Pseudomonas aeruginosa, Escherichia coli, Salmonella typhimurium, Staphylococcus aureus, Staphylococcus epidermidis, Enterococcus faecaelis, and the yeast Candida albicans in Mueller-Hinton media.

[2] = tested on: Salmonella enterica ssp. Typhimurium
Protocol: as §1, §2, §3

Candida albicans = tested on: Candida albicans
Protocol: as §1, §2, §3

[3] = tested on: Staphylococcus epidermidis
Protocol: as §1, §2, §3

[4] = tested on: Staphylococcus aureus ATCC25923
Protocol: as §1, §2, §3

Escherichia coli UB1005 = conditions: Table 6
Protocol: as §1, §2, §3

[5] = tested on: Enterococcus faecalis ATCC29212
Protocol: as §1, §2, §3

[6] = tested on: Pseudomonas aeruginosa strain H1001; assay: Assay for the cleaved (free, soluble) peptides from cellulose support, luminescence killing assay; type: cell-based; parameters: key: 1: Peptides showing stronger killing than Bac2A at a 4 to 8-fold higher dilution; Peptides showing stronger killing compared to that of Bac2A at a 4-fold higher dilution; 3: Peptides similar to Bac2A; 4: Peptides similar to Bac2A at the highest concentration but demonstrating weaker killing at a 2-fold dilution; 5: Peptides giving very weak or no killing at a 2-fold dilution; 6: Peptides with weak killing activity at the highest concentration; conditions: for Soluble Class: Table 5, free peptides; for Activity Class Soluble: free (cleaved) peptides, killing relative to Bac2A
In short: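 Cellulose-synthesized peptides (amidated C-terminus, two β-alanines) cleaved by ammonia, released from punched spots 30 min at 37 °C, then serially diluted. P. aeruginosa H1001 (constitutive fliC::luxCDABE) overnight culture diluted 1:500 in LB or 100 mM Tris pH 7.3/20 mM glucose. Killing followed as time-dependent luminescence loss at 37 °C.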

[7] = tested on: Pseudomonas aeruginosa strain H1001 fliC::luxCDABE; assay: Luminescence-based assay for the non-cleaved (bound) peptides on cellulose membranes; type: cell-based; conditions: for Luminescence at the given time in minutes: 0 / Luminescence at the given time in minutes: 20 / Luminescence at the given time in minutes: 40 / Luminescence at the given time in minutes: 60 / Luminescence at the given time in minutes: 80 / Luminescence at the given time in minutes: 100 / Luminescence at the given time in minutes: 120 / Luminescence at the given time in minutes: 180 / Luminescence at the given time in minutes: 240: cellulose-bound peptide; for Luminescence at the given time in minutes: 0: 0 min; for Luminescence at the given time in minutes: 20: 20 min; for Luminescence at the given time in minutes: 40: 40 min; for Luminescence at the given time in minutes: 60: 60 min; for Luminescence at the given time in minutes: 80: 80 min; for Luminescence at the given time in minutes: 100: 100 min; for Luminescence at the given time in minutes: 120: 120 min; for Luminescence at the given time in minutes: 180: 180 min; for Luminescence at the given time in minutes: 240: 240 min; for Activity Class bound: uncleaved cellulose-bound peptides
In short: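 Peptides remained bound to cellulose spots, which were ethanol-washed and equilibrated in 100 mM Tris pH 7.3. Constitutively lux-expressing P. aeruginosa (OD600 0.35 culture diluted 1:25) added in 10 mM Tris-HCl pH 7.3, 20 mM glucose at 37° C. Luminescence (RLU) followed over 14 time points; peptides binned into six activity classes.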

Substance	MIC P. aerug ([1]; Table 6)	MIC S. Typhim. ([2]; Table 6)	MIC C. albicans (Candida albicans; Table 6)	MIC S. epi. ([3]; Table 6)	MIC S. aureus ([4]; Table 6)	MIC E. coli (Escherichia coli UB1005)	MIC E. faecalis ([5]; Table 6)	MIC C. albicans (Candida albicans)	MIC S. aureus ([4]; ATCC25923)	MIC E. faecalis ([5]; ATCC29212)	MIC P. aerug ([1]; PAO1)	MIC S. Typhim. ([2]; ssp. Typhimurium)	MIC S. epi. [3]	also measured
Bac109: peptide of Table 6 (substitution peptides and truncation variants of Bac2A); sequence in Table 1 (RIVVIRVAR)	n.s.	n.s.	n.s.	n.s.	n.s.	n.s.	n.s.							
Bac112: peptide of Table 6 (substitution peptides and truncation variants of Bac2A); sequence in Table 1 (ARIVVIRV)	n.s.	n.s.	n.s.	n.s.	n.s.	n.s.	n.s.							
Bac118: peptide of Table 6 (substitution peptides and truncation variants of Bac2A); sequence in Table 1 (RIVVIRV)	n.s.	n.s.	n.s.	n.s.	n.s.	n.s.	n.s.							
Bac241: peptide of Table 6 (substitution peptides and truncation variants of Bac2A); sequence in Table 1 (RLERIVVIRVAR)	n.s.	n.s.	n.s.	n.s.	n.s.	n.s.	n.s.							
Bac263: peptide of Table 6 (substitution peptides and truncation variants of Bac2A); sequence in Table 1 (RLAGIVVIRVAR)	n.s.	n.s.	n.s.	n.s.	n.s.	n.s.	n.s.							
ILRRVRVRAVAI-NH2 (C-terminus assumed) [Bac022]								272 µg/mL	125 µg/mL	272 µg/mL				MIC P. aeruginosa ([1]; PAO1): 250 µg/mL; MIC P. aeruginosa Muller Hinton Media ([1]; PAO1): 250 µg/mL; MIC P. aeruginosa With 10 μM Mg ([1]; PAO1): 250 µg/mL; MIC P. aeruginosa With 2 mM Mg ([1]; PAO1): >250 µg/mL; MIC S. typhimurium ([2]; ssp. Typhimurium): 272 µg/mL; MIC S. epidermidis [3]: 136 µg/mL; Soluble Class [6]: 6; Activity Class Soluble [6]: 6; Luminescence at the given time in minutes: 0 [7]: 4336 RLU; Luminescence at the given time in minutes: 20 [7]: 7179 RLU; Luminescence at the given time in minutes: 40 [7]: 5180 RLU; Luminescence at the given time in minutes: 60 [7]: 4505 RLU; Luminescence at the given time in minutes: 80 [7]: 3675 RLU; Luminescence at the given time in minutes: 100 [7]: 3365 RLU; Luminescence at the given time in minutes: 120 [7]: 3044 RLU; Luminescence at the given time in minutes: 180 [7]: 2912 RLU; Luminescence at the given time in minutes: 240 [7]: 2966 RLU; Activity Class bound [7]: 5 (Peptides reducing luminescence (lux) values to between 1500 to 3000 after 240 min.)
RAVAVIIRLRRV-NH2 (C-terminus assumed) [Bac014]								8 µg/mL	13 µg/mL	11 µg/mL				MIC P. aeruginosa ([1]; PAO1): 33 µg/mL; MIC P. aeruginosa Muller Hinton Media ([1]; PAO1): 33 µg/mL; MIC P. aeruginosa With 10 μM Mg ([1]; PAO1): 16 µg/mL; MIC P. aeruginosa With 2 mM Mg ([1]; PAO1): 63 µg/mL; MIC S. typhimurium ([2]; ssp. Typhimurium): 11 µg/mL; MIC S. epidermidis [3]: 8 µg/mL; Soluble Class [6]: 1; Activity Class Soluble [6]: 1; Luminescence at the given time in minutes: 0 [7]: 5233 RLU; Luminescence at the given time in minutes: 20 [7]: 8217 RLU; Luminescence at the given time in minutes: 40 [7]: 7835 RLU; Luminescence at the given time in minutes: 60 [7]: 7867 RLU; Luminescence at the given time in minutes: 80 [7]: 8100 RLU; Luminescence at the given time in minutes: 100 [7]: 8931 RLU; Luminescence at the given time in minutes: 120 [7]: 8956 RLU; Luminescence at the given time in minutes: 180 [7]: 10738 RLU; Luminescence at the given time in minutes: 240 [7]: 12876 RLU
RLWRIVVIRVAR-NH2 (C-terminus assumed) [Bac256]								8 µg/mL	2 µg/mL	2 µg/mL	8 µg/mL	8 µg/mL	0.5 µg/mL	
RRARIVVIRVAR-NH2 (C-terminus assumed) [Bac233]								8 µg/mL	16 µg/mL	16 µg/mL	8 µg/mL	8 µg/mL	2 µg/mL	
RRWRIVVIRVRR-NH2 (C-terminus assumed) [Bac430]								4 µg/mL	2 µg/mL	4 µg/mL	2 µg/mL	4 µg/mL	0.2 µg/mL	
RRWVIWRR-NH2 (C-terminus assumed) [Bac437]								63 µg/mL	16 µg/mL	32 µg/mL	250 µg/mL	31 µg/mL	8 µg/mL	
RWWKIWVIRWWR-NH2 (C-terminus assumed) [Bac432]								31 µg/mL	8 µg/mL	8 µg/mL	31 µg/mL	16 µg/mL	1 µg/mL	
VIRRRRILAAVV-NH2 (C-terminus assumed) [Bac044]								136 µg/mL	250 µg/mL	> 272 µg/mL				MIC P. aeruginosa ([1]; PAO1): > 250 µg/mL; MIC P. aeruginosa Muller Hinton Media ([1]; PAO1): >250 µg/mL; MIC P. aeruginosa With 10 μM Mg ([1]; PAO1): 250 µg/mL; MIC P. aeruginosa With 2 mM Mg ([1]; PAO1): >250 µg/mL; MIC S. typhimurium ([2]; ssp. Typhimurium): 113 µg/mL; MIC S. epidermidis [3]: 113 µg/mL; Soluble Class [6]: 6; Activity Class Soluble [6]: 6; Luminescence at the given time in minutes: 0 [7]: 5592 RLU; Luminescence at the given time in minutes: 20 [7]: 7069 RLU; Luminescence at the given time in minutes: 40 [7]: 5932 RLU; Luminescence at the given time in minutes: 60 [7]: 5652 RLU; Luminescence at the given time in minutes: 80 [7]: 5206 RLU; Luminescence at the given time in minutes: 100 [7]: 5008 RLU; Luminescence at the given time in minutes: 120 [7]: 4999 RLU; Luminescence at the given time in minutes: 180 [7]: 5060 RLU; Luminescence at the given time in minutes: 240 [7]: 5195 RLU; Activity Class bound [7]: 6 (Peptides having residual luminescence (lux) values greater than 3000 after 240 min.)
VRLRIRVAVIRA-NH2 (C-terminus assumed) [Bac034]								8 µg/mL	5 µg/mL	11 µg/mL				MIC P. aeruginosa ([1]; PAO1): 10 µg/mL; MIC P. aeruginosa Muller Hinton Media ([1]; PAO1): 10 µg/mL; MIC P. aeruginosa With 10 μM Mg ([1]; PAO1): 4 µg/mL; MIC P. aeruginosa With 2 mM Mg ([1]; PAO1): 16 µg/mL; MIC S. typhimurium ([2]; ssp. Typhimurium): 6 µg/mL; MIC S. epidermidis [3]: 4 µg/mL; Soluble Class [6]: 1; Activity Class Soluble [6]: 1; Luminescence at the given time in minutes: 0 [7]: 5305 RLU; Luminescence at the given time in minutes: 20 [7]: 6449 RLU; Luminescence at the given time in minutes: 40 [7]: 4160 RLU; Luminescence at the given time in minutes: 60 [7]: 1454 RLU; Luminescence at the given time in minutes: 80 [7]: 390 RLU; Luminescence at the given time in minutes: 100 [7]: 157 RLU; Luminescence at the given time in minutes: 120 [7]: 64 RLU; Luminescence at the given time in minutes: 180 [7]: 60 RLU; Luminescence at the given time in minutes: 240 [7]: 63 RLU; Activity Class bound [7]: 3 (Peptides similar to Bac2A resulting in lux values of less than 500 after 240 min.)
